Results as given in PubChem BioAssay AID463151 (The Scripps Research Institute Molecular Screening Center, 2010).
Active and inactive are the calls of the source. How the calls were made is not given here.

Target: Nuclear receptor ROR-gamma (Homo sapiens) (UniProt P51449)
Test: RORG inhibitor potency, late-stage follow-up, selectivity assay for RORA inverse agonist project, cell-based, luminescence, dose response (AID 463151)
Conditions: cell-based RORG luciferase reporter

Sequence of Nuclear receptor ROR-gamma (Homo sapiens) (P51449 whole entry, looked up): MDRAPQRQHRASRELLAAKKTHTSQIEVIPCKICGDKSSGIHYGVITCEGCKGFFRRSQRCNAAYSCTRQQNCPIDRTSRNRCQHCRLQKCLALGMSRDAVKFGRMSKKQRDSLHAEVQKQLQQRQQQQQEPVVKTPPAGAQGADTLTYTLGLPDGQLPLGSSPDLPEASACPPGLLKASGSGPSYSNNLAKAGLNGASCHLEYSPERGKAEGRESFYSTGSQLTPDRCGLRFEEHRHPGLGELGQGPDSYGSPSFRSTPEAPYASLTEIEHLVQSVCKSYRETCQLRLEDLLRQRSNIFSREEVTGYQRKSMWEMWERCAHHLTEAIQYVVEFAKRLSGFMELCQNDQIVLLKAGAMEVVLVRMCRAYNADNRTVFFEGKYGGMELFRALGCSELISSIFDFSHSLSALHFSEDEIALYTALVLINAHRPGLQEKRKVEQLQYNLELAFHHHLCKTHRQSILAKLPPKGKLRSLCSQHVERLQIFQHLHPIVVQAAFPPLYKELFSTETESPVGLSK

In the case of `O=S(=O)(Nc1ccc(C(O)(C(F)(F)F)C(F)(F)F)cc1)c1cccs1`, the IC50 is reported as > 10 µM (inactive).
